Measured values taken from PubChem BioAssay (NCI).
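Where inhibition never reached the appropriate level, the endpoint shown equals the highest concentration tested. Otherwise, values were interpolated linearly from a five-concentration, 48-hour dose response in 96-well plates. GI50 marks 50% less growth. The concentration for full growth arrest is given as TGI.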

Legend:
Assay in all cases: NCI-60 cell line screen, 48 h
CAKI-1 renal = test system: CAKI-1 renal
CCRF-CEM leukemia = test system: CCRF-CEM leukemia
DU-145 prostate = test system: DU-145 prostate
HL-60(TB) leukemia = test system: HL-60(TB) leukemia
HS 578T breast = test system: HS 578T breast
LOX IMVI melanoma = test system: LOX IMVI melanoma
OVCAR-8 ovarian = test system: OVCAR-8 ovarian
PC-3 prostate = test system: PC-3 prostate
SF-295 CNS = test system: SF-295 CNS
HOP-62 NSCLC = test system: HOP-62 NSCLC

Structure (SMILES)	GI50 (CAKI-1 renal)	TGI (CAKI-1 renal)	GI50 (CCRF-CEM leukemia)	TGI (CCRF-CEM leukemia)	GI50 (DU-145 prostate)	TGI (DU-145 prostate)	GI50 (HL-60(TB) leukemia)	TGI (HL-60(TB) leukemia)	GI50 (HS 578T breast)	TGI (HS 578T breast)	GI50 (LOX IMVI melanoma)	TGI (LOX IMVI melanoma)	GI50 (OVCAR-8 ovarian)	TGI (OVCAR-8 ovarian)	GI50 (PC-3 prostate)	TGI (PC-3 prostate)	GI50 (SF-295 CNS)	TGI (SF-295 CNS)	GI50 (HOP-62 NSCLC)	TGI (HOP-62 NSCLC)
O=C(Nc1ccccc1I(=O)=O)C1CCCCC1	> 100 µM	> 100 µM	> 100 µM	> 100 µM	> 100 µM	> 100 µM	57.6 µM	> 100 µM	> 100 µM	> 100 µM	> 100 µM	> 100 µM	> 100 µM	> 100 µM	> 100 µM	> 100 µM	> 100 µM	> 100 µM		
Cc1cc(C)c(C#N)c(Sc2nc(C)c([N+](=O)[O-])c(C)c2C#N)n1	2.17 µM	5.65 µM			2.95 µM	11.1 µM	2.63 µM	7.34 µM	2.44 µM	8.51 µM	1.82 µM	3.44 µM	3.03 µM	10.5 µM	4.67 µM	61.2 µM	14.2 µM	59.4 µM	3.52 µM	12.7 µM
NC1c2ccccc2Nc2ccccc21		17.4 µM		25.7 µM				16.3 µM				13.2 µM		17.1 µM				17 µM		26.7 µM
COc1ccc2oc3c(OC)c(OC)c(OC)cc3c(=O)c2c1		> 100 µM		> 100 µM								> 100 µM		> 100 µM						> 100 µM
CCC[CH2][Sn]([CH2]CCC)([S]C#N)[S]C#N	0.32 µM	1.87 µM	0.224 µM	0.869 µM			0.389 µM	1.45 µM			0.85 µM	2.47 µM	1.53 µM	3.54 µM			1.53 µM	2.94 µM	1.98 µM	3.58 µM
C=C1C(O)C2CC(C)(CO)C(=O)C2=C(CC(C)C)C12CC2 (stereo not given)	69.6 µM	> 100 µM	58 µM	> 100 µM	86.4 µM	> 100 µM			> 100 µM	> 100 µM	57.9 µM	> 100 µM	77.8 µM	> 100 µM	56 µM	> 100 µM	57.1 µM	> 100 µM	> 100 µM	> 100 µM
Cc1cc(N(CCOS(C)(=O)=O)CCOS(C)(=O)=O)ccc1C(=O)O	43.7 µM	> 100 µM	67.4 µM	> 100 µM	> 100 µM	> 100 µM			> 100 µM	> 100 µM	73.5 µM	> 100 µM	> 100 µM	> 100 µM	> 100 µM	> 100 µM	> 100 µM	> 100 µM	> 100 µM	> 100 µM
CCCCCC(=O)Nc1nc2nc[nH]c2c(=O)[nH]1		> 100 µM		> 100 µM				> 100 µM						> 100 µM				> 100 µM		> 100 µM
C/C(CN1C(=O)c2ccccc2C1=O)=N\NS(=O)(=O)c1cccc(C(=O)O)c1		> 100 µM		> 100 µM				> 100 µM						> 100 µM				> 100 µM		> 100 µM
